# Experimental data: US20070082880A1 (priority 2005, published 2007)
# Structures can show the parent of a compound that is named as a salt.
# Columns and labels:
# [1] = molecular target: PKCθ (Homo sapiens, UniProt Q04759); assay: PKCθ Scintiplate Assay; assay type: biochemical; conditions: average value when one or more samples were tested
# Protocol: This assay detects the phosphorylation of a biotinylated substrate by kinase utilizing radiolabeled ATP (ATP γ P33). The enzyme is either recombinant full length PKCθ (Panvera, P2996) or the purified recombinant active kinase domain of full length PKCθ (amino acids 362-706). The substrate in this assay is a biotinylated peptide with a sequence of biotin-[…]-CONH2. The assay buffer is composed of 100 mM Hepes, pH7.5, 2 mM MgCl2, 20 mM β-glycerophosphate and 0.008% TritonX 100. A reaction mixture of ATP, ATP γ P33 (PerkinElmer), DTT, lipid activator, and the enzyme is prepared in the assay buffer and added to a 96 well polypropylene plate. The compound (diluted in DMSO in a separate 96-well polypropylene plate) is added to the reaction mixture and incubated at room temperature. Following the incubation, the peptide substrate is added to the reaction mixture to initiate the enzymatic reaction. The reaction is terminated with the addition of a stop solution (10 mM EDTA, 0.2% TritonX100, and 100 mM NaHPO4) and transferred from the assay plate to a washed streptavidin-coated 96 well scintiplate (PerkinElmer). The scintiplate is incubated at room temperature, washed in PBS with 0.1% TritonX 100, and counted in the 1450 Microbeta Trilux (Wallac, Version 2.60). Counts are recorded for each well as corrected counts per minute (CCPM). The counts are considered corrected because they are adjusted according to a P33 normalization protocol, which corrects for efficiency and background differences between the instrument detectors (software version 4.40.01).
# [2] = molecular target: T1, human PKCθ full length enzyme (Homo sapiens, UniProt Q04759); assay: PKCθ IMAP Assay; assay type: biochemical; conditions: average value when one or more samples were tested; ATP 6 uM, PKCθ 1 nM
# T1 construct: human PKCθ full length enzyme (Panvera Catalog No. P2996); purchased Panvera P2996
# T1 sequence (Q04759 whole entry): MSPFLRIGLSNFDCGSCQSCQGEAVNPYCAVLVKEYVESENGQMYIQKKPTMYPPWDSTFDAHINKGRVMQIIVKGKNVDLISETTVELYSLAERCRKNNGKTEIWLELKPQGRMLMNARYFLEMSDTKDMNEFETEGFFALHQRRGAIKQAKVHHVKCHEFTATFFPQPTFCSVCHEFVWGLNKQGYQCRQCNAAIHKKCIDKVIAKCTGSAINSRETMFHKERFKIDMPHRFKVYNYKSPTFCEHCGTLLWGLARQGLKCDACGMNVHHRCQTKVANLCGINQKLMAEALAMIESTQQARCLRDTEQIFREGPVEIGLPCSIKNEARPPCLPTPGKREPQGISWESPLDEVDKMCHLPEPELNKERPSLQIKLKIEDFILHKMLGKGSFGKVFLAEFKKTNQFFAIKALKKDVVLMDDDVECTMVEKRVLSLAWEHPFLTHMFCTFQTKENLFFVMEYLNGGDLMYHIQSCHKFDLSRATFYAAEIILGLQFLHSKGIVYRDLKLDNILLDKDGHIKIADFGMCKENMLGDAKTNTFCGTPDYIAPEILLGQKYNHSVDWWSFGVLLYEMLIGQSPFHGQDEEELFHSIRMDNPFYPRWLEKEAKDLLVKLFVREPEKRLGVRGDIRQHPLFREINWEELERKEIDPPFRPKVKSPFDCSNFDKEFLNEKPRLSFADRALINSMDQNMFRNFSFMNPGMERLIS
# Summary of the method: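 Full-length human PKCθ (1 nM final) with 6 uM ATP and 100 nM 5FAM-labelled peptide, 5% DMSO, 3.0 mM DTT in reaction buffer. 25 min at room temperature; IMAP bead binding 20 min, fluorescence polarization read. Compounds 2:1 serially diluted; no-ATP and no-enzyme wells as controls.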
# Sequence of PKCθ (Q04759 362-706 limits assumed): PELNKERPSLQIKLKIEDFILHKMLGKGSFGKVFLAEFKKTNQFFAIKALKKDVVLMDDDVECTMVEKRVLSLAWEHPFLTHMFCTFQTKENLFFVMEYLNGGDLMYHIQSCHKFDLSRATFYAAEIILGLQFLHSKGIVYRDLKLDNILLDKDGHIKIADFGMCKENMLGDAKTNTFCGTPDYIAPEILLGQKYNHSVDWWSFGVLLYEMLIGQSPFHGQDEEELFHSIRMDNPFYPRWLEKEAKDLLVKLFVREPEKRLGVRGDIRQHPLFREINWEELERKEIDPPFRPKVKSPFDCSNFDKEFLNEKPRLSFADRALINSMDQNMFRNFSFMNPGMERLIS
SMILES,IC50 [1],IC50 [2],melting point
"N#Cc1cnc2sc(-c3ccccc3)cc2c1Nc1ccc2cc[nH]c2c1 [Compound 116, 4-(1H-indol-6-ylamino)-2-phenylthieno[2,3-b] pyridine-5-carbonitrile hydrochloride]",> 3300 nM,5600 nM,
"Cc1cc2cc(Nc3c(C#N)cnc4sc(-c5ccccc5)cc34)ccc2[nH]1 [Compound 118, 4-[(2-methyl-1H-indol-5-yl)amino]-2-phenylthieno[2,3-b]pyridine-5-carbonitrile]",2700 nM,1900 nM,
"N#Cc1cnc2sc(-c3ccccc3)cc2c1Nc1ccc2[nH]cnc2c1 [Compound 119, 4-(1H-benzimidazol-5-ylamino)-2-phenylthieno[2,3-b]pyridine-5-carbonitrile]",9100 nM,,
"Cc1cc(Nc2c(C#N)cnc3sc(-c4ccccc4)cc23)cc2cc[nH]c12 [Compound 120, 4-[(7-methyl-1H-indol-5-yl)amino]-2-phenylthieno[2,3-b]pyridine-5-carbonitrile]",120000 nM,,
"N#Cc1cnc2sc(-c3ccccc3)cc2c1NCc1cccc2[nH]ccc12 [Compound 125, 4-(1H-indol-4-ylmethylamino)-2-phenylthieno[2,3-b]pyridine-5-carbonitrile]",> 30000 nM,,
"CN1CCN(Cc2ccc(-c3cc4c(NCCc5c[nH]cn5)c(C#N)cnc4s3)cc2)CC1 [Compound 128, 4-{[2-(1H-imidazol-4-yl)ethyl]amino}-2-{4-[(4-methylpiperazin-1-yl)methyl]phenyl}thieno[2,3-b]pyridine-5-carbonitrile]",7300 nM,,
"N#Cc1cnc2sc(-c3ccccc3)cc2c1NC(=O)c1ccc2[nH]ccc2c1 [Compound 129, N-(5-cyano-2-phenylthieno[2,3-b]pyridin-4-yl)-1H-indole-5-carboxamide]",> 60000 nM,> 100000 nM,
"Cc1c[nH]c2ccc(Nc3c(C#N)cnc4sc(-c5ccccc5)cc34)cc12 [Compound 133, 4-[(3-methyl-1H-indol-5-yl)amino]-2-phenylthieno[2,3-b]pyridine-5-carbonitrile]",800 nM,1400 nM,
"Cn1ccc2cc(Nc3c(C#N)cnc4sc(-c5ccccc5)cc34)ccc21 [Compound 134, 4-[(1-methyl-1H-indol-5-yl)amino]-2-phenylthieno[2,3-b]pyridine-5-carbonitrile]",> 200000 nM,,
"N#Cc1cnc2sc(-c3ccc(N4CCOCC4)cc3)cc2c1Nc1ccc2[nH]ccc2c1 [Compound 189, 4-(1H-indol-5-ylamino)-2-(4-morpholin-4-ylphenyl)thieno[2,3-b]pyridine-5-carbonitrile]",2100 nM,,
CN1CCN(Cc2ncc(-c3cc4c(Nc5ccc6[nH]ccc6c5)c(C#N)cnc4s3)n2C)CC1 [Compound 210],580 nM,,
"N#Cc1cnc2sc(C#Cc3ccccc3)cc2c1Nc1ccc2[nH]ccc2c1 [Compound 215, 4-(1H-indol-5-ylamino)-2-(phenylethynyl)thieno[2,3-b]pyridine-5-carbonitrile]",500 nM,,
"Cc1c(Nc2c(C#N)cnc3scc(CO)c23)ccc2[nH]ccc12 [Compound 496, 3-(Hydroxymethyl)-4-[(4-methyl-1H-indol-5-yl)amino]thieno[2,3-b]pyridine-5-carbonitrile]",,63 nM,230 °C
"N#Cc1c[n+]([O-])c2sc(-c3ccccc3)cc2c1Nc1ccc2[nH]ccc2c1 [Compound 500, 4-(1H-indol-5-ylamino)-2-phenylthieno[2,3-b]pyridine-5-carbonitrile 7-oxide]",,16800 nM,> 245 °C

# Results, then the compound that gave them:
IC50 [1],IC50 [2],melting point,SMILES
280 nM,,,"CN1CCN(Cc2ccc(-c3cc4c(Nc5ccc6[nH]ccc6c5)c(C#N)cnc4s3)cc2)CC1 [Compound 104, 4-(1H-indol-5-ylamino)-2-{4-[(4-methylpiperazin-1-yl)methyl]phenyl}thieno[2,3-b]pyridine-5-carbonitrile]"
77 nM,,,"CN(C)Cc1ccc(-c2cc3c(Nc4ccc5[nH]ccc5c4)c(C#N)cnc3s2)cc1 [Compound 105, 2-{4-[(dimethylamino)methyl]phenyl}-4-(1H-indol-5-ylamino)thieno[2,3-b]pyridine-5-carbonitrile]"
80 nM,140 nM,,"N#Cc1cnc2sc(-c3ccc(CNCCO)cc3)cc2c1Nc1ccc2[nH]ccc2c1 [Compound 106, 2-(4-{[(2-hydroxyethyl)amino]methyl}phenyl)-4-(1H-indol-5-ylamino)thieno[2,3-b]pyridine-5-carbonitrile]"
28 nM,60 nM,,"Cc1c(Nc2c(C#N)cnc3sc(-c4ccccc4)cc23)ccc2[nH]ccc12 [Compound 117, 4-[(4-methyl-1H-indol-5-yl)amino]-2-phenylthieno[2,3-b]pyridine-5-carbonitrile]"
190 nM,,,"N#Cc1cnc2sc(-c3ccc(CN4CCOCC4)cc3)cc2c1Nc1cccc2[nH]ccc12 [Compound 138, 4-(1H-indol-4-ylamino)-2-[4-(morpholin-4-ylmethyl)phenyl]thieno[2,3-b]pyridine-5-carbonitrile]"
41 nM,40 nM,,"CN(C)Cc1cccc(-c2cc3c(Nc4cccc5[nH]ccc45)c(C#N)cnc3s2)c1 [Compound 141, 2-{3-[(dimethylamino)methyl]phenyl}-4-(1H-indol-4-ylamino)thieno[2,3-b]pyridine-5-carbonitrile]"
180 nM,240 nM,,"CN1CCN(Cc2ccccc2-c2cc3c(Nc4cccc5[nH]ccc45)c(C#N)cnc3s2)CC1 [Compound 143, 4-(1H-indol-4-ylamino)-2-{2-[(4-methylpiperazin-1-yl)methyl]phenyl}thieno[2,3-b]pyridine-5-carbonitrile]"
90 nM,,,"CN1CCN(Cc2cccc(-c3cc4c(Nc5ccc6[nH]ccc6c5)c(C#N)cnc4s3)c2)CC1 [Compound 145, 4-(1H-indol-5-ylamino)-2-{3-[(4-methylpiperazin-1-yl)methyl]phenyl}thieno[2,3-b]pyridine-5-carbonitrile]"
43 nM,75 nM,,"CN(C)Cc1cccc(-c2cc3c(Nc4ccc5[nH]ccc5c4)c(C#N)cnc3s2)c1 [Compound 147, 2-{3-[(dimethylamino)methyl]phenyl}-4-(1H-indol-5-ylamino)thieno[2,3-b]pyridine-5-carbonitrile]"
310 nM,,,"N#Cc1cnc2sc(-c3cccc(CN4CCN(CCc5ccccc5)CC4)c3)cc2c1Nc1ccc2[nH]ccc2c1 [Compound 152, 4-(1H-indol-5-ylamino)-2-(3-{[4-(2-phenylethyl)piperazin-1-yl]methyl}phenyl)thieno[2,3-b]pyridine-5-carbonitrile]"
190 nM,,,"CCN1CCN(CC/C=C/c2cc3c(Nc4ccc5[nH]ccc5c4)c(C#N)cnc3s2)CC1 [Compound 190, 2-[(1E)-4-(4-ethylpiperazin-1-yl)but-1-en-1-yl]-4-(1H-indol-5-ylamino)thieno[2,3-b]pyridine-5-carbonitrile]"
45 nM,,,"CN(C)CCc1ccc(-c2cc3c(Nc4ccc5[nH]ccc5c4)c(C#N)cnc3s2)cc1 [Compound 192, 2-{4-[2-(dimethylamino)ethyl]phenyl}-4-(1H-indol-5-ylamino)thieno[2,3-b] pyridine-5-carbonitrile]"
180 nM,,,"Cn1cncc1-c1cc2c(Nc3ccc4[nH]ccc4c3)c(C#N)cnc2s1 [Compound 205, 4-(1H-indol-5-ylamino)-2-(1-methyl-1H-imidazol-5-yl)thieno[2,3-b]pyridine-5-carbonitrile]"
